Tests used:
[1] = test system: healthy volunteers; conditions: humans, cited from earlier work
[2] = test system: animals suffering from the effects of iodine toxicity; conditions: animals (chicks) with iodine toxicity; cited from earlier work
[3] = test system: symptoms caused by depression; experiment: Self-administration of iodinated activated charcoal and its separate components by one patient with long-standing depression symptoms, with daily symptom recording and a Quality of life questionnaire; format: in vivo, human; conditions: 90 mg daily in a capsule, after 2 weeks
Description: A person, has for some 20 years suffered from many symptoms, including chronic and severe mental fatigue in spite of 12 h sleep per night, psychological burnout, anxiety, lack of concentration, depressive mood, withdrawal from social situations, irritable bowel symptoms with constipation and/or diarrhea, anxiety, heart palpitations, pressure in the chest, reduced stamina and condition and a reduced sex drive. When asked to evaluate their subjective health status using a Quality of life questionnaire with a 1-10 scale where 1 is the worst possible and 10 is absolutely the best, they regularly marked 1 or 2. Their symptoms were interpreted as caused by depression, and they were treated with 5 different types of anti-depressants for a total of 17 years.
Some time ago, they tested the mercury binding substance iodinated activated charcoal (IAC, custom made at PharmaLundensis according to Example 1). They took 1 g per day of IAC for two weeks, and recorded the symptoms they experienced daily, as well as filling in a Quality of life questionnaire. […] They felt better than they had felt for many years.
After these two weeks, they wanted to clarify if the massive improvement in their health was caused by the IAC. […]

SMILES: [Br-].[Na+] [Sodium bromide, sodium bromide]
- no-effect level ([1]; healthy volunteers): 4 mg/kg body weight
- tolerability [1]: well tolerated
- effect on symptoms of iodine toxicity [2]: helps to reverse the symptoms

SMILES: II [elemental iodine]
- Quality of life score [3]: as bad as when they started taking the iodine capsules
- improvement of symptoms [3]: no improvements

From patent publication US20130209581A1, “IODINATED ACTIVATED CHARCOAL FOR TREATING SYMPTOMS OF DEPRESSION” (priority 2010, published 2013)
